Measurements reported in ChEMBL document CHEMBL1136499, “Tripeptidyl-peptidase II (TPP II) inhibitory activity of (S)-2,3-dihydro-2-(1H-imidazol-2-yl)-1H-indoles, a systematic SAR evaluation. Part 2” (Bioorg Med Chem Lett, 2003).

target: Tripeptidyl-peptidase 2 (Rattus norvegicus, UniProt Q64560); experiment: Inhibition of Tripeptidyl-peptidase II purified from a rat liver post-lysosomal fraction.
Sequence (Q64560 whole entry): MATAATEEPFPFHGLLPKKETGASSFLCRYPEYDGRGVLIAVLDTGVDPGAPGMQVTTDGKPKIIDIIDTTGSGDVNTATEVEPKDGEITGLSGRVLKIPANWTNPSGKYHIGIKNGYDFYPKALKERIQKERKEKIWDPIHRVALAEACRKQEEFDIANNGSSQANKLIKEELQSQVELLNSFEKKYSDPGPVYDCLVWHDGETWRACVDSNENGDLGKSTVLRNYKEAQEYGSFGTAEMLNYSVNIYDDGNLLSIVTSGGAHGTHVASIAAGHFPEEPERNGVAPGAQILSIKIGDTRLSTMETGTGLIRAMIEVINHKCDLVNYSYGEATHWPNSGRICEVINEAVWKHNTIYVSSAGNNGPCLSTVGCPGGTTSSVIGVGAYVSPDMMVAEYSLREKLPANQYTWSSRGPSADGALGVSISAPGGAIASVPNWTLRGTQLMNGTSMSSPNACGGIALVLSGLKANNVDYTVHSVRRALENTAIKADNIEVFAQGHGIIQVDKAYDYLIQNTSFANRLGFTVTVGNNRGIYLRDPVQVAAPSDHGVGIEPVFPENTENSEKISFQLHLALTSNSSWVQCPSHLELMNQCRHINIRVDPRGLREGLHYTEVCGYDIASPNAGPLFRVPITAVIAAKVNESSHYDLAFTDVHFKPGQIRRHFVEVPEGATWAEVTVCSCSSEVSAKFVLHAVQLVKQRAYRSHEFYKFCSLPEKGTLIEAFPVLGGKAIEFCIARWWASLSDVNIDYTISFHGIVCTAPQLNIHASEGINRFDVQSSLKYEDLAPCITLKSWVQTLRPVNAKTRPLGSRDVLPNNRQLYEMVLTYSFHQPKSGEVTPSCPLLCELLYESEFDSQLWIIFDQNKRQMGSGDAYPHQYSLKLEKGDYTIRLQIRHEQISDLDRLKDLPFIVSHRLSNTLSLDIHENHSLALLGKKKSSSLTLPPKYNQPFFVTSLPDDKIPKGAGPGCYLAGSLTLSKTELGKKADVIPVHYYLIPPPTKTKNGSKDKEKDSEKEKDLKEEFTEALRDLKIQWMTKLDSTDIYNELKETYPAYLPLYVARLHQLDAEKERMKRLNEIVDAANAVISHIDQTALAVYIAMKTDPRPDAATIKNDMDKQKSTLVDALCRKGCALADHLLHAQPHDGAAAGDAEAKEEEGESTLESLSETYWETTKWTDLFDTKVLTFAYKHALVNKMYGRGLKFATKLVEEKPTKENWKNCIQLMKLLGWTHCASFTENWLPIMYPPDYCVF

Row | Compound | IC50 [nM]
1 | CCCc1cnc([C@@H]2Cc3ccccc3N2C(=O)c2ccccc2[N+](=O)[O-])[nH]1 | > 10000
2 | CCCc1c[nH]c([C@@H]2Cc3ccccc3N2C(=O)c2c[nH]cn2)n1 | > 10000
3 | CCCc1c[nH]c([C@@H]2Cc3ccccc3N2C(=O)[C@H](N)CC)n1 | 4
4 | CCCc1c[nH]c([C@@H]2CCc3ccccc3N2C(=O)[C@H](C)N)n1 (stereo in doubt; form 1) | 800
5 | C[C@H](N)C(=O)N1c2ccccc2C[C@H]1c1nc2ccccc2[nH]1 | 1400
6 | CCC(N)C(=O)N1c2ccccc2C[C@H]1c1nc2ccccc2[nH]1 (stereo partly specified) | 450
7 | CCCc1c[nH]c([C@@H]2Cc3cc(OC)ccc3N2C(=O)CN)n1 | 70
8 | CCCc1cnc([C@@H]2Cc3ccccc3N2C(=O)c2cccc([N+](=O)[O-])c2)[nH]1 | > 10000
9 | CCCc1cnc([C@@H]2Cc3cc(Cl)ccc3N2C(=O)[C@H](C)N)[nH]1 | 5
10 | CCCc1c[nH]c([C@@H]2Cc3ccccc3N2C(=O)c2cccc(N)c2)n1 | > 10000
11 | CCCc1cnc([C@@H]2Cc3ccccc3N2C(=O)[C@H]2CCCN2)[nH]1 | 1400
12 | CCc1cnc([C@@H]2Cc3ccccc3N2C[C@H](C)N)[nH]1 | > 10000
13 | CCCc1[nH]c([C@@H]2Cc3ccccc3N2C(=O)CN)nc1C(=O)NCC(=O)OC | 135
14 | CCCc1c[nH]c([C@@H]2Cc3cc(OC)ccc3N2C(=O)[C@H](C)N)n1 | 16
15 | CCCc1c[nH]c([C@@H]2Cc3ccccc3N2C(=O)[C@@H](N)CCC)n1 | 4
16 | NCC(=O)N1c2ccccc2C[C@H]1c1nc(-c2ccccc2)c[nH]1 | > 10000
17 | CCCc1cnc([C@@H]2Cc3ccccc3N2C(=O)[C@@H](N)Cc2ccccc2)[nH]1 | 2300
18 | CCCc1c[nH]c([C@@H]2CCc3ccccc3N2C(=O)[C@H](C)N)n1 (stereo in doubt; form 2) | 400
19 | CCc1c[nH]c([C@@H]2Cc3ccccc3N2C(=O)[C@H](C)N)n1 | 23
20 | CCCc1cnc([C@@H]2Cc3ccccc3N2C(=O)c2ccccc2N)[nH]1 | > 10000
21 | CCCc1c[nH]c([C@@H]2Cc3ccccc3N2C(=O)[C@@H](N)C(C)C)n1 | 20
22 | CCCc1c[nH]c([C@@H]2Cc3ccccc3N2C(=O)[C@H](C)NC)n1 | > 10000

More lines, now with the values ahead:

Row | IC50 [nM] | Compound
23 | 55 | CCCc1[nH]c([C@@H]2Cc3ccccc3N2C(=O)CN)nc1C
24 | 210 | CCCc1[nH]c([C@@H]2Cc3ccccc3N2C(=O)CN)nc1C(=O)OCC
25 | > 10000 | CCCc1nnc([C@@H]2Cc3ccccc3N2C(=O)CN)[nH]1
26 | 2200 | CCCc1nnc([C@@H]2Cc3ccccc3N2C(=O)CN)o1
27 | 50 | CCCCc1cnc([C@@H]2Cc3ccccc3N2C(=O)CN)[nH]1
28 | 46 | CCCc1cnc([C@@H]2Cc3cc(F)ccc3N2C(=O)CN)[nH]1
29 | 2100 | CCc1cn(C)c([C@@H]2Cc3ccccc3N2C(=O)CN)n1
30 | 7700 | CCc1cnc([C@@H]2Cc3ccccc3N2C(=O)CN)s1
31 | > 10000 | CCCc1cnc([C@@H]2Cc3ccccc3N2C(=O)CCN)[nH]1
32 | > 10000 | CCc1cnc([C@@H]2Cc3ccccc3N2C(=O)CN)n1C
33 | 36 | CCCc1c[nH]c([C@@H]2Cc3ccccc3N2C(=O)CN)n1
34 | 11 | CCCc1c[nH]c([C@@H]2Cc3cc(Cl)ccc3N2C(=O)CN)n1
35 | 200 | CCCc1nc([C@@H]2Cc3ccccc3N2C(=O)CN)[nH]c1C(N)=O
36 | 194 | CCc1c[nH]c([C@@H]2Cc3ccccc3N2C(=O)CN)n1
